This passage reports ED50 results from patent US5075304A, “Imidazoquinoxaline compounds and their preparation and use” (Novo Nordisk A/S, priority 1988, dated 1991).

Each structure is given as a SMILES string.

The assay concerns benzodiazepine receptors. The experiment in a line: in vivo displacement of 3H-flunitrazepam binding from brain benzodiazepine receptors. To be noted: dose reducing specific 3H-flunitrazepam binding in living mouse brain to 50% of control; test substance intraperitoneally 15 min before 3H-FNM i.v. Further details: species or system mice. An excerpt: The pharmaceutical properties of the compounds of the invention can be illustrated by determining their capability for displacing radioactive labelled flunitrazepam from benzodiazepine receptors.
The displacement activity of the compounds of the invention may be found by determining the ED50 value. The ED50 value represents the dose (mg/kg) of a test substance which causes the specific binding of flunitrazepam to benzodiazepine receptors in a living brain to be reduced to 50% of the control value.
Such an in vivo test is carried out as follows:
Principle. Twenty minutes after a dose of ^3 H-flunitrazepam (^3 H-FNM) (200 μCi/kg, i.v.) the amount of specific ^3 H-FNM binding to brain benzodiazepine receptors has reached its maximal value.
Test procedure. Suspensions of test substances (2 mg/ml) are prepared in 5% Duphasol-X (TM Duphar, castor oil-ethylene oxide derivative for emulsifying and solubilizing oil and other water-insoluble substances) by sonification for 10 min using a Branson B15 microtip ultrasonifier (setting 7). Groups of three mice (female, NMR, 18-22 grams) are injected with the test substance at 100 mg/kg intraperitoneally. Fifteen minutes after test substance administration the mice are challenged with 4 μCi intravenously of ^3 H-FNM (70-90 Ci/mole) in 200 μl physiological saline. Twenty minutes after ^3 H-FNM administration mice are sacrificed by decapitation, the forebrains rapidly excised (within 30 sec) and homogenized in 12 ml of icecold 25 mM KH2 PO4, pH 7.1, using an Ultra-Turrax homogenizer fitted with an N 10 shaft. […] The amounts of radioactivity on the filters are determined by conventional scintillation counting. […]
Results. The ED50 value is determined from dose response curves. If only one dose of test substance is administered the ED50 value is calculated as follows, provided that the inhibition of specific binding is within the range of 25-75%: [formula] where Co is specific binding in controls and Cx is specific binding in mice treated with test substance.
In the case of `Cn1c(=O)c2c(-c3noc(C4CC4)n3)ncn2c2cccc(C(F)(F)F)c21` [Compound 2, 3-(5-cyclopropyl-1,2,4-oxadiazol-3-yl)-4,5-dihydro-5-methyl-4-oxo-6-trifluoromethyl-imidazo[1,5-a]quinoxaline], the ED50 (commonly the midpoint of the dose-response relation) was determined as 0.09 mg/kg. Next, `O=c1c2c(-c3noc(C4CC4)n3)ncn2c2ccccc2n1Cc1ccccc1` [Compound 1, 5-benzyl-3-(5-cyclopropyl-1,2,4-oxadiazol-3-yl)-4,5-dihydro-4-oxo-imidazo[1,5-a]quinoxaline]: 1.2 mg/kg; `Cn1c(=O)c2c(-c3nc(C4CC4)no3)ncn2c2cccc(C(F)(F)F)c21` [Compound 6, 3-(3-cyclopropyl-1,2,4-oxadiazol-5-yl)-4,5-dihydro-5-methyl-4-oxo-6-trifluoromethylimidazo[1,5-a]quinoxaline]: 0.21 mg/kg.
